Data as given in US8815935B2, “Inhibitors of protein prenyltransferases” (The Regents of the University of California, priority 2008, dated 2014).
pIC50: −log10 of the molar value. Like-named read-outs stand apart in the source and are kept apart here.

How the values were obtained:
[1] = biological target: T1, GGTase-I (Rattus norvegicus, UniProt P53610+Q04631); assay: In vitro GGTase-I enzyme assay (IC50, kinetics); assay type: biochemical; conditions: for pIC50: Tables 3, 5, 7, read-out: In vitro (enzyme assay) IC50, GGTase I; for IC50: Tables 8-15, no unit printed there (Table 7 head: μM unless otherwise specified), read-out: In vitro (GGTase I IC50)
T1 construct: purchased JENA BIOSCIENCE
Description: The GGTase-I assay was carried out using RhoA as a substrate protein, GGTase-I (JENA Bioscience) and [3H]geranylgeranyl pyrophosphate. Incubation was for 30 min at 37° C. GGTase-II (or RabGGTase) assay was carried out using YPTI as a substrate protein, GGTase-II (Calbiochem, San Diego, Calif.) plus REP1 (Calbiochem) and [3H]geranylgeranyl pyrophosphate. Incubation was for 30 min at 37° C. FIGS. 20D-20F show the three dimensional structure of GGTase I (D), FTsse (E) and GGTase II (F) which can be obtained from X-ray diffraction studies of protein crystals.
(§1) GGTase-I and FTase activities were determined by following the incorporation of radiolabeled isoprenoid [^3H]-geranylgeranyl or [^3H]-farnesyl into substrate proteins. FTase or GGTase-I (50 nM) were used to initiate reactions containing 0.4 μM of [^3H]-FPP or 0.5 μM of [^3H]-GGPP and 2 μM of MBP-tagged substrates (K-Ras4B for FTase; RhoA for GGTase-I) in 20 μl of buffer {50 mM Tris-HCl (pH 7.5), 10 mM MgCl2, […] and 5 mM DTT}. Inhibitors were added at the indicated concentrations. The final DMSO concentration was 2.5% for all samples.
(§2) Reactions were carried out for 10 min at 30° C. The reaction mixture was spotted onto a filter paper, treated with 10% trichloroacetic acid (TCA) followed by ethanol and acetone washing. The filter was counted using a scintillation counter. Kinetic assays in which the GGPP concentration was varied employed fixed concentrations of GGTase-I and RhoA, and reactions were carried out for 5 min. Similarly, fixed concentrations of GGTase-I and GGPP were used when the amount of RhoA was varied.

[2] = test system: MCF7; assay: MCF7 cell growth inhibition; assay type: cell-based, human
Description: (§3) In FIG. 9-24 in vitro IC50 values for the GGTase I activity are reported. In Tables 7-15 in cell GI50 values for the growth inhibition of a variety of cancer cell lines (e.g., Jurkat, K562, MDA-MB-231, BT474, MCF7, MiaPaCa2, Aspc-1, Panc-1, Capan-2, CFpac-1, and MCF10a) are reported.
(§4) Cell viability was determined by Cell Counting Kit-8 (CCK-8, Dojindo, Kumamoto, Japan) as described previously (31). Cell viability was calculated relative to the DMSO control. Cell cycle profile was analyzed by flow cytometry as described previously (32).

[3] = test system: Jurkat cells; assay: Jurkat cell growth inhibition; assay type: cell-based, human
Description: In Table 4 in cell GI50 values for the growth inhibition of Jurkat cells are reported. The GI50 value is the concentration of a test compound needed to produce 50% growth inhibition in the cell type listed. In Table 4 the isolated yield of each synthetic step for the synthesis of corresponding compounds are also reported.
(§5) Panc-1 cells (Pancreatic cancer cell line) and Jurkat cells (T-cell leukemia) were treated with 12.5 μM of P5-H6 or 12.5 μM of mP5-H6a for 72 hours. The cell number was counted as described in Example 5.
as §4

[4] = test system: MCF10a; assay: MCF10a cell growth inhibition; assay type: cell-based
Text: as §3

[5] = test system: K562 cells; assay: K562 cell growth inhibition; assay type: cell-based, human
Description: K562 cells are a cell line of human erythroleukemia cells. The K562 cells were treated with P3-E5, P5-H6 or GGTI-298 (a known GGTI compound illustrated in FIG. 27) for 72 hours and then cell number was counted using cell counting kit-8 (Dojindo, Gaithersburg, Md.). Cell viability relative to the DMSO control and the known GGTI compound is plotted in FIG. 23.
as §4

[6] = biological target: T2, FTase (Rattus norvegicus, UniProt Q02293+Q04631); assay: In vitro FTase assay (K-Ras4B substrate, [3H]FPP); assay type: biochemical; conditions: P3-D9, P3-E5: concentration increased to 100 (unit not given)
T2 construct: purchased JENA BIOSCIENCE
Text: To further characterize the pilot library, inhibitors of protein farnesyltransferase were identified. This was accomplished by using K-Ras4B as a substrate protein, tritiated farnesylpyrophosphate ([^3H]FPP) and protein farnesyltransferase. See Finegold, A. A., Johnson, D. I., Farnsworth, C. C., Gelb, M. H., Judd, S. R., Glomset, J. A. and Tamanoi, F. (1991) Protein geranylgeranyltransferase of Saccharomyces cerevisiae is specific for Cys-Xaa-Xaa-Leu motif and requires the CDC43 gene product but not the DPR1 gene product. Proc. Natl. Acad. Sci. USA 88, 4448-4452. […] On the other hand, the structure of the compounds P1-F11, P2-B7 and P2-E9 resemble those of GGTIs. The FTI P1-F11 resembles the GGTI P1-F10, while the FTI P2-B7 resembles the GGTI P2-C10. The FTI P2-E9 is similar to the GGTI P2-G3. Similarity of some GGTI and FTI compounds may point to common structural features between the two closely related enzymes. As described before, FTase and GGTase I have similar three-dimensional structures and a shared alpha subunit. On the other hand, FTase specific inhibitors may recognize a region(s) that is different between the two enzymes.
Examples 2-8 illustrate assays of bioactivity. These methods are applicable to the compounds of the present invention having the particular linkers and scaffolds described herein, to determine their activity. […] Varying concentrations of the two compounds were added to each enzyme reaction. The FTase (protein farnesyltransferase) assay was carried out using K-Ras4B as a substrate protein, FTase (JENA Bioscience, San Diego, Calif.) and [3H]farnesyl pyrophosphate. Incubation was for 30 min at 37° C.
as §1, §2

[7] = test system: CFpac-1; assay: CFpac-1 cell growth inhibition; assay type: cell-based, human; conditions: no unit printed there
Description: as §3, §4

[8] = test system: Aspc-1; assay: Aspc-1 cell growth inhibition; assay type: cell-based, human; conditions: no unit printed there
Description: as §3, §4

[9] = test system: Capan-2; assay: Capan-2 cell growth inhibition; assay type: cell-based, human; conditions: no unit printed there
Description: as §3, §4

[10] = test system: MDA-MB-231; assay: MDA-MB-231 cell growth inhibition; assay type: cell-based, human; conditions: no unit printed there
Description: as §3, §4

[11] = test system: MiaPaCa2; assay: MiaPaCa2 cell growth inhibition; assay type: cell-based, human; conditions: no unit printed there
Description: as §3, §4

[12] = test system: BT474; assay: BT474 cell growth inhibition; assay type: cell-based, human; conditions: no unit printed there
Description: as §3, §4

[13] = test system: Panc-1; assay: Panc-1 cell growth inhibition; assay type: cell-based, human; conditions: no unit printed there
Description: as §3, §5, §4

[14] = Homo sapiens, Jurkat, Tables 4, 6, 7, read-out: Jurkat cell GI50
[15] = Homo sapiens, MCF7, Tables 8-15, no unit printed there
[16] = Homo sapiens, Jurkat, Tables 8-15, no unit printed there, read-out: Jurkat GI50
[17] = Homo sapiens, MCF-10A, Tables 8-15, no unit printed there
[18] = Homo sapiens, K562, Tables 8-15, no unit printed there
[19] = Homo sapiens, CFPAC-1, Tables 8-15
[20] = Homo sapiens, ASPC1, Tables 8-15
[21] = Homo sapiens, Capan-2, Tables 8-15
[22] = Homo sapiens, MIA PaCa-2, Tables 8-15
[23] = Homo sapiens, BT-474, Tables 8-15
[24] = Homo sapiens, PANC-1, Tables 8-15
[25] = Tables 4, 6, 7, read-out: Jurkat cell GI50
[26] = Tables 8-15, no unit printed there, listed as P61C4

SMILES	pIC50 [1]	GI50 [3, 14] [µM]	IC50 [1] [µM]	GI50 [3, 16] [µM]	GI50 [5, 18] [µM]	GI50 [7, 19] [µM]	GI50 [8, 20] [µM]	GI50 [9, 21] [µM]	GI50 [11, 22] [µM]	GI50 [12, 23] [µM]	GI50 [13, 24] [µM]	also measured
Cc1ccccc1S(=O)(=O)N1[C@@H](c2ccc(Cl)cc2)C(C(=O)NO)=C[C@H]1C(C)(C)C	5.89	4.02	–	–	–	–	–	–	–	–	–	GI50 ([2]; Homo sapiens, MCF7, Table 7): 2.52 µM; GI50 ([4]; Homo sapiens, MCF-10A, Table 7): 11.4 µM; GI50 ([5]; Homo sapiens, K562, Table 7): 10.3 µM
COC(=O)[C@H](Cc1ccccc1)NC(=O)COCC1=C[C@@H](C(C)(C)C)N(S(=O)(=O)c2ccccc2C)[C@H]1c1ccc(Cl)cc1	–	–	2.1	3.51	6.01	–	–	–	–	–	–	GI50 [2, 15]: 6.78 µM; GI50 [4, 17]: 20 µM
Cn1cncc1CN1C[C@@H](Cc2ccccc2)N(S(=O)(=O)c2cccs2)Cc2cc(C#N)ccc21 [BMS225975, reference compound]	–	–	–	–	–	–	–	–	–	–	–	inhibition of GGTase I (FIG. 16 controls) [1]: does not inhibit GGTase I; inhibition of FTase activity (FIG. 16) [6]: inhibits FTase
CC(C)(C)[C@@H]1C=C(C(=O)N[C@@H](Cc2ccccc2)C(N)=O)[C@H](c2ccc(Br)cc2)N1S(=O)(=O)c1ccccc1Cl [P61-B08]	4.80	4.74	6	4.74	5.21	6.16	12.2	8.32	6.15	9.08	9.05	GI50 ([10]; Tables 8-15, listed as P61B8): 4.43 µM
CC(C)(C)[C@@H]1C=C(C(=O)N[C@@H](Cc2ccccc2)C(N)=O)[C@H](c2ccc(Br)cc2)N1S(=O)(=O)c1ccccc1Cl [P61-B09]	< 5.00	–	> 10	–	–	–	–	–	–	–	–	GI50 ([7]; Tables 8-15, listed as P61B9): 6.3 µM; GI50 ([8]; Tables 8-15, listed as P61B9): 16.8 µM; GI50 [3, 25]: 8.75 µM; GI50 ([3]; Tables 8-15, no unit printed there, listed as P61B9, read-out: Jurkat GI50): 8.75 µM; GI50 ([9]; Tables 8-15, listed as P61B9): 10.7 µM; GI50 ([10]; Tables 8-15, listed as P61B9): 11.3 µM; GI50 ([11]; Tables 8-15, listed as P61B9): 12.1 µM; GI50 ([12]; Tables 8-15, listed as P61B9): 9.9 µM; GI50 ([5]; Tables 8-15, no unit printed there, listed as P61B9): 9.18 µM; GI50 ([13]; Tables 8-15, listed as P61B9): 12 µM
Cc1ccccc1S(=O)(=O)N1[C@@H](c2ccc(Cl)c(Cl)c2)C(C(=O)N[C@@H](Cc2ccccc2)C(N)=O)=C[C@H]1C(C)(C)C [P61-B10]	5.27	5.62	5.4	5.62	6.74	–	12.9	8.45	8.06	10.8	11.7	GI50 ([7]; Tables 8-15): 6.09 µM; GI50 ([10]; Tables 8-15): 12.6 µM
Cc1ccccc1S(=O)(=O)N1[C@@H](c2ccc(Cl)cc2)C(C(=O)N[C@@H](Cc2ccccc2)C(N)=O)=C[C@H]1C(C)CC(C)(C)C (some centres unmarked) [P61-C03]	< 5.00	9.76	> 10	9.79	6.3	1.25	11.4	10.5	7.17	10.8	8.85	GI50 [2, 15]: 3.1 µM; GI50 [4, 17]: 9.16 µM
Cc1ccccc1S(=O)(=O)N1[C@@H](c2ccc(Cl)cc2)C(C(=O)N[C@@H](Cc2ccccc2)C(N)=O)=C[C@H]1C(C)CC(C)(C)C (some centres unmarked) [P61-C04]	< 4.30	–	> 50	–	–	–	–	–	–	–	–	GI50 [2, 26]: 4.71 µM; GI50 ([8]; Tables 8-15, listed as P61C4): 8.61 µM; GI50 [3, 25]: 6.4 µM; GI50 ([3]; Tables 8-15, no unit printed there, listed as P61C4, read-out: Jurkat GI50): 6.4 µM; GI50 [4, 26]: 11.3 µM; GI50 ([9]; Tables 8-15, listed as P61C4): 7.5 µM; GI50 ([11]; Tables 8-15, listed as P61C4): 6.7 µM; GI50 ([12]; Tables 8-15, listed as P61C4): 10.1 µM; GI50 [5, 26]: 5.95 µM; GI50 ([13]; Tables 8-15, listed as P61C4): 8.6 µM
Cc1ccccc1S(=O)(=O)N1[C@@H](c2ccc(Cl)cc2)C(C(=O)N[C@@H](CC(C)C)C(N)=O)=C[C@H]1C(C)(C)C [drawing 156]	–	–	8.1	6.58	6.7	–	–	–	–	5.28	–	GI50 ([10]; Homo sapiens, MDA-MB-231, Tables 8-15): 6.68 µM
Cc1ccccc1S(=O)(=O)N1[C@@H](c2ccc(Cl)cc2)C(C(=O)N[C@@H](CC(C)C)C(N)=O)=C[C@H]1C(C)(C)C [drawing 164]	–	–	–	–	–	< 1.25	11.4	6.69	7.24	–	6.45	–
Cc1ccccc1S(=O)(=O)N1C(c2cccc(Cl)c2)C(C(=O)N[C@@H](CC(C)C)C(N)=O)=CC[C@H]1c1ccc(Cl)cc1 (some centres unmarked) [drawing 202]	–	–	–	–	–	13.7	–	14	12	–	–	–
